Columns and labels:
[1] = system: production of β-amyloid protein (Aβ) by E35 cells (human glioma H4 cells transfected with APP751 gene); test: Screening system using cells: inhibition of production/secretion of β-amyloid protein (Aβ sandwich ELISA of culture supernatant); assay type: cell-based; settings: 24 hours with compound, Aβ in supernatant by ELISA, read-out: Activity (EC50, concentration at which production of Aβ is inhibited by 50%)
Experimental: Inhibitory activity of compounds against production of β-amyloid protein was measured by quantitative determination of the amount of β-amyloid protein (Aβ) secreted into the culture medium by sandwich enzyme-linked immunosorbent assay (ELISA) method, using E35 cells prepared by transfecting APP751 gene, which is a human wild type β-amyloid protein precursor protein gene, into human glioma cells (H4 cells).
That is, E35 cells were inoculated into a 96-well plate followed by cultivation in an incubator equilibrated with 5% carbon dioxide at 37° C., using Dulbecco's Modified Eagle's Medium supplemented with inactivated 10% fetal bovine serum as the medium. Test compounds dissolved in DMSO solution were added 24 hours after inoculation. Test compounds in DMSO solution were prepared to have a 2000-fold concentration of the final concentration, so that the DMSO concentration in the medium becomes 0.05%. After further cultivation for 24 hours, supernatant was collected, and was added to a 96-well plate for ELISA fixed with monoclonal antibody 25-1 against Aβ. Incubation was carried out at 4° C. for 16-20 hours. The plate was washed with phosphate buffer (pH 7.4), followed by addition of biotinylated monoclonal antibody MA32-40 against Aβ, and the plate was allowed to stand at 4° C. for 2 hours. After the plate was washed with phosphate buffer again, streptavidin conjugated alkaline phosphatase was added. Biotin was allowed to conjugate with streptavidin, and then the plate was washed with phosphate buffer. Blue Phos (KPL Inc.) was added to the plate, and then after incubation for an appropriate period of time, absorbance was measured for each of the wells. The amount of Aβ contained in the supernatant of conditioned medium was obtained from a calibration curve which was prepared separately. The concentration at which production of Aβ is inhibited by 50% (EC50), when compared with the control cells without the addition of the compound, was calculated. Here, 25-1 antibody and MA32-40 antibody used in ELISA are mouse monoclonal antibodies derived from hybridoma cell clone cell lines, which specifically recognize each antigen which was prepared and selected in accordance with a standard method by using Aβ25-35 and Aβ1-8 as antigens, respectively.
Results for the evaluation made by the aforementioned assay with respect to compound (I) of the present invention are shown in Table 1. Notation of ++++ is provided when EC50 is 5 nM or lower, +++ when 5-50 nM, and ++ when 50-500 nM.

Compound | melting point | EC50 [1] [nM]
Cc1cc(C(=O)NCO)ncc1C(c1c(F)ccc(F)c1F)S(=O)(=O)CCC(C)(F)F (stereo not drawn) | 161 to 161.5 °C | 
CCCS(=O)(=O)C(c1cnc(C(N)=O)cc1C)c1c(F)ccc(F)c1F (stereo not drawn) | 202 to 204 °C | 
Cc1cc(C(N)=O)ncc1C(c1c(F)ccc(F)c1F)S(=O)(=O)CCC(C)(C)C (stereo not drawn) | 143 to 144 °C | 
Cc1cc(C(N)=O)ncc1C(c1c(F)ccc(F)c1F)S(=O)(=O)CC1CC1 (stereo not drawn) | 222 to 223 °C | 
Cc1cc(C(N)=O)ncc1C(c1c(F)ccc(F)c1F)S(=O)(=O)CC(C)C (stereo not drawn) | 240 to 241 °C | 
Cc1cc(C(N)=O)ncc1C(c1c(F)ccc(F)c1F)S(=O)(=O)CC1CCC1 (stereo not drawn) | 214 to 215 °C | 
Cc1cc(C(=O)NCO)ncc1C(c1c(F)ccc(F)c1F)S(=O)(=O)CCC(F)(F)C(F)(F)F (stereo not drawn) | 126 to 128 °C | 
Cc1cc(C(N)=O)ncc1C(SCCC=C(F)F)c1c(F)ccc(F)c1F (stereo not drawn) | 97 to 98 °C | 
Cc1cc(C(N)=O)ncc1C(c1c(F)ccc(F)c1F)S(=O)(=O)CCC(F)=C(F)F (stereo not drawn) | 170 to 172 °C | 
Cc1cc(C(N)=O)ncc1C(c1c(F)ccc(F)c1F)S(=O)(=O)CC(F)(F)C(F)F (stereo not drawn) | 160 to 161 °C | 
Cc1cc(C(N)=O)ncc1C(c1c(F)ccc(F)c1F)S(=O)(=O)CC(C(F)(F)F)C(F)(F)F (stereo not drawn) | 194 to 196 °C | 
Cc1cc(C(N)=O)ncc1C(c1c(F)ccc(F)c1F)S(=O)(=O)CCC(F)F (stereo not drawn) | 191.5 to 192 °C | 
Cc1cc(C(N)=O)ncc1C(c1c(F)ccc(F)c1F)S(=O)(=O)CC1CC(F)(F)C1 (stereo not drawn) | 205 to 207 °C | 
Cc1cc(C(=O)O)ncc1C(c1c(F)ccc(F)c1F)S(=O)(=O)CCC(F)(F)F (stereo not drawn) | 85 to 87 °C | 
Cc1cc(C(=O)N(C)C)ncc1C(c1c(F)ccc(F)c1F)S(=O)(=O)CCC(F)(F)F (stereo not drawn) | 203 to 204 °C | 
Cc1cc(C(=O)NCCO)ncc1C(c1c(F)ccc(F)c1F)S(=O)(=O)CCC(F)(F)F (stereo not drawn) | 146 to 147 °C | 
Cc1cc(C(N)=O)ncc1C(c1c(F)ccc(F)c1F)S(=O)(=O)CCCC(F)(F)F (stereo not drawn) | 201 to 203 °C | 

Compound | melting point | EC50 [1] [nM]
Cc1cc(C(N)=O)ncc1C(c1c(F)ccc(F)c1F)S(=O)(=O)CCCF (stereo not drawn) | 194 to 196 °C | 
Cc1cc(C(N)=O)ncc1C(c1c(F)ccc(F)c1F)S(=O)(=O)CCC(F)(F)F (stereo not drawn) [Example 3, 4-Methyl-5-[(2,3,6-trifluorophenyl)[(3,3,3-trifluoropropyl)sulfonyl]methyl]pyridine-2-carboxamide] | 190 to 191 °C | 50 to 500
Cc1cc(C(=O)NCO)ncc1C(c1c(F)ccc(F)c1F)S(=O)(=O)CCC(F)(F)F (stereo not drawn) [Example 4, N-(Hydroxymethyl)-4-methyl-5-[(2,3,6-trifluorophenyl)[(3,3,3-trifluoropropyl)sulfonyl]methyl]pyridine-2-carboxamide] | 146 to 148 °C | 5 to 50
Cc1cc(C(N)=O)ncc1C(c1c(F)ccc(F)c1F)S(=O)(=O)CCC(C)(F)F (stereo not drawn) [Example 10, 5-[[(3,3-Difluorobutyl)sulfonyl](2,3,6-trifluorophenyl)methyl]-4-methylpyridine-2-carboxamide] | 165 to 166 °C | 50 to 500
CCCCS(=O)(=O)C(c1cnc(C(N)=O)cc1C)c1c(F)ccc(F)c1F (stereo not drawn) [Example 15, 5-[(Butylsulfonyl)(2,3,6-trifluorophyenyl)methyl]-4-methylpyridine-2-carboxamide] | 203 to 204 °C | 50 to 500
Cc1cc(C(N)=O)ncc1C(c1c(F)ccc(F)c1F)S(=O)(=O)CCC(Cl)(Cl)Cl (stereo not drawn) [Example 18, 4-Methyl-5-[[(3,3,3-trichloropropyl)sulfonyl](2,3,6-trifluorophenyl)methyl]pyridine-2-carboxamide] | 173 to 175 °C | 50 to 500
Cc1cc(C(N)=O)ncc1C(c1c(F)ccc(F)c1F)S(=O)(=O)CCC(F)(F)C(F)(F)F (stereo not drawn) [Example 19, 4-Methyl-5-[[(3,3,4,4,4-pentafluorobutyl)sulfonyl](2,3,6-trifluorophenyl)methyl]pyridine-2-carboxamide] | 155 to 156 °C | 5 to 50
Cc1cc(C(N)=O)ncc1C(c1c(F)ccc(F)c1F)S(=O)(=O)CCCCl (stereo not drawn) [Example 30, 5-[[(3-Chloropropyl)sulfonyl](2,3,6-trifluorophenyl)methyl]-4-methylpyridine-2-carboxamide] | 197 to 199 °C | 50 to 500
Cc1cc(C(N)=O)ncc1C(c1c(F)ccc(F)c1F)S(=O)(=O)CCC(F)(F)Cl (stereo not drawn) [Example 34, 5-[[(3-Chloro-3,3-difluoropropyl)sulfonyl](2,3,6-trifluorophenyl)methyl]-4-methylpyridine-2-carboxamide] | 181 to 183 °C | 5 to 50
Cc1cc(C(=O)NCO)ncc1C(c1c(F)ccc(F)c1F)S(=O)(=O)CCC(F)(F)Cl (stereo not drawn) [Example 35, 5-[[(3-Chloro-3,3-difluoropropyl)sulfonyl](2,3,6-trifluorophenyl)methyl]-N-(hydroxymethyl)-4-methylpyridine-2-carboxamide] | 150 to 152 °C | 5 to 50
Cc1cc(C(N)=O)ncc1C(c1c(F)ccc(F)c1F)S(=O)(=O)CC=C(F)F (stereo not drawn) [Example 37, 5-[[(3,3-Difluoroprop-2-en-1-yl)sulfonyl](2,3,6-trifluorophenyl)methyl]-4-methylpyridine-2-carboxamide] | 171 to 172 °C | 50 to 500
NC(=O)c1cc(C(c2c(F)ccc(F)c2F)S(=O)(=O)CCC(F)(F)F)c(Cl)cn1 (stereo not drawn) [Example 45, 5-Chloro-4-[(2,3,6-trifluorophenyl)[(3,3,3-trifluoropropyl)sulfonyl]methyl]pyridine-2-carboxamide] | 237 to 239 °C | 50 to 500
Nc1cc(C(c2c(F)ccc(F)c2F)S(=O)(=O)CCC(F)(F)F)c(Cl)cn1 (stereo not drawn) [Example 48, 5-Chloro-4-[(2,3,6-trifluorophenyl)[(3,3,3-trifluoropropyl)sulfonyl]methyl]pyridin-2-amine] | 155 to 159 °C | 5 to 50
O=c1cc(O)nc2cc(C(c3c(F)ccc(F)c3F)S(=O)(=O)CCC(F)(F)F)c(Cl)cn12 (stereo not drawn) [Example 49, 7-Chloro-2-hydroxy-8-[(2,3,6-trifluorophenyl)[(3,3,3-trifluoropropyl)sulfonyl]methyl]-4H-pyrido[1,2-a]pyrimidin-4-one] | 264 °C (dec.) | 5 to 50
Nc1cc(=O)n2cc(Cl)c(C(c3c(F)ccc(F)c3F)S(=O)(=O)CCC(F)(F)F)cc2n1 (stereo not drawn) [Example 51, 2-Amino-7-chloro-8-[(2,3,6-trifluorophenyl)[(3,3,3-trifluoropropyl)sulfonyl]methyl]-4H-pyrido[1,2-a]pyrimidin-4-one] | 247 °C (dec.) | ≤ 5
O=c1[nH]nc2cc(C(c3c(F)ccc(F)c3F)S(=O)(=O)CCC(F)(F)F)c(Cl)cn12 (stereo not drawn) [Example 54, 6-Chloro-7-[(2,3,6-trifluorophenyl)[(3,3,3-trifluoropropyl)sulfonyl]methyl][1,2,4]triazolo[4,3-a]pyridin-3(2H)-one] | 209 to 211 °C | 5 to 50
